In patent publication US20230382889A1 (Volastra Therapeutics, Inc., priority 2022, published 2023) one finds IC50 data, which are given here for 25 compounds.

Structures are written as SMILES.

Sequence of hKIF18A (1-374) (Q8NI77 1-374): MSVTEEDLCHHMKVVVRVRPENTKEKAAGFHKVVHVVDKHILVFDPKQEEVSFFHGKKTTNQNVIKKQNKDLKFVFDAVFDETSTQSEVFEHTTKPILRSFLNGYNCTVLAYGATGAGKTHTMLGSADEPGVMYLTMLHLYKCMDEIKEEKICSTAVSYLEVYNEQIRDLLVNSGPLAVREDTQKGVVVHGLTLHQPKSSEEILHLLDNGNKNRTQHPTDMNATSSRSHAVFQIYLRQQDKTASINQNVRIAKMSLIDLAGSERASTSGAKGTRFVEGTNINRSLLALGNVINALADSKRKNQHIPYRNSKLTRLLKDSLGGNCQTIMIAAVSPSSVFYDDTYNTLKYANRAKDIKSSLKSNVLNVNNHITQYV

The target of this assay is hKIF18A (1-374) (Homo sapiens (Human), UniProt Q8NI77). The assay is described as follows: Inhibition of KIF18A microtubule-dependent ATPase activity (ADP-Glo). It counts as biochemical. The note with it: 4 nM hKIF18A (1-374). The procedure:
Test compounds were plated in a 3× dilution scheme in a 384-well plate. Assay buffer: 80 mM PIPES (pH 6.9), 1 mM MgCl2, 75 mM KCl, 1 mM EGTA, 1 mM DTT, 0.01% BSA, 0.005% Tween-20, 1 μM Taxol in H2O. […] After incubation at room temperature for 30 min, 2.5 μL of microtubule mix was added [0.2 mg/mL pre-formed microtubules, 2.0 mM ATP in assay buffer], the plate was centrifuged for 30 s and then incubated at 28° C. for 60 min. 5 μL of Promega® ADP-Glo Max R1 was added, the plate was centrifuged for 30 s, and the mixture incubated for 4 h at room temperature. 10 μL of Promega® ADP-Glo Max R2 was added, the plate centrifuged for 30 s, and incubated for 60 min at room temperature. Luminescence was measured with an Envision plate reader, and % Inhibition was calculated for each well as: ([max−min]−[test−min])/[max−min]. IC50 values were calculated from concentration vs. % Inhibition data via a four-parameter variable slope model.
(ADP-Glo turns the ADP formed in a reaction into a luminescent signal.)
What is called IC50 is the midpoint of a concentration-inhibition curve. Lower therefore signals higher potency. Compound `CS(=O)(=O)Nc1ccc(-n2cc(-c3cccc(N4CCC(F)(F)CC4)n3)nn2)c(N2CCC3(CC2)CC3)n1` [Compound 46, N-(5-(4-(6-(4,4-difluoropiperidin-1-yl)pyridin-2-yl)-1H-1,2,3-triazol-1-yl)-6-(6-azaspiro[2.5]octan-6-yl)pyridin-2-yl)methanesulfonamide] came in with an IC50 of 9.1 nM.
`Cc1cc(-c2cn(-c3ccc(NS(=O)(=O)CCO)cc3N3CCC4(CC3)CC4)nn2)nc(N2CCC(F)(F)CC2)c1` [Compound 48, N-(4-(4-(6-(4,4-difluoropiperidin-1-yl)-4-methylpyridin-2-yl)-1H-1,2,3-triazol-1-yl)-3-(6-azaspiro[2.5]octan-6-yl)phenyl)-2-hydroxyethane-1-sulfonamide]: the IC50 was found to be 17 nM.
Compound `CS(=O)(=O)Nc1ccc(-n2cc(-c3csc(N4CCC(F)(F)CC4)n3)nn2)c(N2CCC3(CC2)CC3)c1` [Compound 50, N-(4-(4-(2-(4,4-difluoropiperidin-1-yl)thiazol-4-yl)-1H-1,2,3-triazol-1-yl)-3-(6-azaspiro[2.5]octan-6-yl)phenyl)methanesulfonamide] returned an IC50 of 7.2 nM.
To `O=S(=O)(CCO)Nc1ccc(-n2cc(-c3ccc(C(O)C4CCCC4)o3)nn2)c(N2CCC3(CC2)CC3)c1` (stereo not shown) [Compound 51, N-(4-(4-(5-(cyclopentyl(hydroxy)methyl)furan-2-yl)-1H-1,2,3-triazol-1-yl)-3-(6-azaspiro[2.5]octan-6-yl)phenyl)-2-hydroxyethane-1-sulfonamide] belongs 2.8 nM; to `CS(=O)(=O)Nc1ccc(-n2cc(-c3cccc(N4CCC(F)(F)CC4)n3)nn2)c(N2CCCCCC2)c1` [Compound 52, N-(3-(azepan-1-yl)-4-(4-(6-(4,4-difluoropiperidin-1-yl)pyridin-2-yl)-1H-1,2,3-triazol-1-yl)phenyl)methanesulfonamide], 18 nM; to `CS(=O)(=O)Nc1ccc(-n2cc(-c3cccc(N4CCC(F)(F)CC4)n3)nn2)c(N2CC3CC(C3)C2)c1` [Compound 53, N-(3-(3-azabicyclo[3.1.1]heptan-3-yl)-4-(4-(6-(4,4-difluoropiperidin-1-yl)pyridin-2-yl)-1H-1,2,3-triazol-1-yl)phenyl)methanesulfonamide], 43 nM.
Then `CS(=O)(=O)Nc1ccc(-n2cc(-c3cccc(N4CCOCC4)n3)nn2)c(N2CCC3(CC2)CC3)c1` [Compound 54, N-(4-(4-(6-morpholinopyridin-2-yl)-1H-1,2,3-triazol-1-yl)-3-(6-azaspiro[2.5]octan-6-yl)phenyl)methanesulfonamide], with 8.3 nM; and `CS(=O)(=O)Nc1ccc(-n2cc(-c3cccc(N4CC5CC(C4)O5)n3)nn2)c(N2CCC3(CC2)CC3)c1` [Compound 55, N-(4-(4-(6-(6-oxa-3-azabicyclo[3.1.1]heptan-3-yl)pyridin-2-yl)-1H-1,2,3-triazol-1-yl)-3-(6-azaspiro[2.5]octan-6-yl)phenyl)methanesulfonamide], with 29 nM.
To `CC1CN(c2cccc(-c3cn(-c4ccc(NS(C)(=O)=O)cc4N4CCC5(CC4)CC5)nn3)n2)CCO1` (stereo not shown) [Compound 56, N-(4-(4-(6-(2-methylmorpholino)pyridin-2-yl)-1H-1,2,3-triazol-1-yl)-3-(6-azaspiro[2.5]octan-6-yl)phenyl)methanesulfonamide] belongs 13 nM.
`CS(=O)(=O)Nc1ccc(-n2cc(-c3cccc(N4CC5(CCC5)C4)n3)nn2)c(N2CCC3(CC2)CC3)c1` [Compound 57, N-(4-(4-(6-(2-azaspiro[3.3]heptan-2-yl)pyridin-2-yl)-1H-1,2,3-triazol-1-yl)-3-(6-azaspiro[2.5]octan-6-yl)phenyl)methanesulfonamide] had an IC50 of 37 nM.
Then `CS(=O)(=O)Nc1ccc(-n2cc(-c3cccc(N4CC5(CCO5)C4)n3)nn2)c(N2CCC3(CC2)CC3)c1` [Compound 58, N-(4-(4-(6-(1-oxa-6-azaspiro[3.3]heptan-6-yl)pyridin-2-yl)-1H-1,2,3-triazol-1-yl)-3-(6-azaspiro[2.5]octan-6-yl)phenyl)methanesulfonamide], with 41 nM.
Consider `CS(=O)(=O)Nc1cc(N2CCC3(CC2)CC3)c(-n2cc(-c3cccc(N4CCC(F)(F)CC4)n3)nn2)cn1` [Compound 59, N-(5-(4-(6-(4,4-difluoropiperidin-1-yl)pyridin-2-yl)-1H-1,2,3-triazol-1-yl)-4-(6-azaspiro[2.5]octan-6-yl)pyridin-2-yl)methanesulfonamide], for which it took 1.6 nM to reach half-maximal inhibition (IC50).
Then `CS(=O)(=O)Nc1ccc(-n2cc(-c3cccc(N4CC(F)(F)C4)n3)nn2)c(N2CCC3(CC2)CC3)c1` [Compound 60, N-(4-(4-(6-(3,3-difluoroazetidin-1-yl)pyridin-2-yl)-1H-1,2,3-triazol-1-yl)-3-(6-azaspiro[2.5]octan-6-yl)phenyl)methanesulfonamide], with 6.5 nM; and `CS(=O)(=O)Nc1ccc(-n2cc(-c3cncc(N4CCC(F)(F)CC4)n3)nn2)c(N2CCC3(CC2)CC3)c1` [Compound 63, N-(4-(4-(6-(4,4-difluoropiperidin-1-yl)pyrazin-2-yl)-1H-1,2,3-triazol-1-yl)-3-(6-azaspiro[2.5]octan-6-yl)phenyl)methanesulfonamide], with 3.4 nM.
To `O=S(=O)(CCO)Nc1ccc(-c2cn(-c3cccc(N4CCC(F)(F)CC4)c3)nn2)c(N2CCC3(CC2)CC3)c1` [Compound 65, N-(4-(1-(3-(4,4-difluoropiperidin-1-yl)phenyl)-1H-1,2,3-triazol-4-yl)-3-(6-azaspiro[2.5]octan-6-yl)phenyl)-2-hydroxyethane-1-sulfonamide] belongs 8.6 nM.
The compound `CS(=O)(=O)Nc1ccc(-n2cc(-c3nccc(N4CCC(F)(F)CC4)n3)cn2)c(N2CCC3(CC2)CC3)c1` [Compound 66, N-(4-(4-(4-(4,4-difluoropiperidin-1-yl)pyrimidin-2-yl)-1H-pyrazol-1-yl)-3-(6-azaspiro[2.5]octan-6-yl)phenyl)methanesulfonamide] gave an IC50 of 14 nM.
To `Cc1cc(-c2cn(-c3ccc(NS(=O)(=O)CCO)cc3N3CCCCC3)nn2)nc(N2CC3C(C2)C3(F)F)n1` (stereo not shown) [Compound 74, N-(4-(4-(2-(6,6-difluoro-3-azabicyclo[3.1.0]hexan-3-yl)-6-methylpyrimidin-4-yl)-1H-1,2,3-triazol-1-yl)-3-(piperidin-1-yl)phenyl)-2-hydroxyethane-1-sulfonamide] belongs 18 nM; to `Cc1cc(-c2cn(-c3ccc(NS(=O)(=O)CCO)cc3N3CCCCCC3)nn2)nc(N2CCC(F)(F)CC2)n1` [Compound 75, N-(3-(azepan-1-yl)-4-(4-(2-(4,4-difluoropiperidin-1-yl)-6-methylpyrimidin-4-yl)-1H-1,2,3-triazol-1-yl)phenyl)-2-hydroxyethane-1-sulfonamide], 7.1 nM; to `O=S(=O)(CCO)Nc1ccc(-n2cc(-c3ccn(C4CCC(F)(F)CC4)n3)nn2)c(N2CCCCC2)c1` [Compound 76, N-(4-(4-(1-(4,4-difluorocyclohexyl)-1H-pyrazol-3-yl)-1H-1,2,3-triazol-1-yl)-3-(piperidin-1-yl)phenyl)-2-hydroxyethane-1-sulfonamide], 29 nM.
Then `O=S(=O)(CCO)Nc1ccc(-n2cc(-c3ccn(CC4CCC4)n3)nn2)c(N2CCC3(CC2)CC3)c1` [Compound 77, N-(4-(4-(1-(cyclobutylmethyl)-1H-pyrazol-3-yl)-1H-1,2,3-triazol-1-yl)-3-(6-azaspiro[2.5]octan-6-yl)phenyl)-2-hydroxyethane-1-sulfonamide], with 12 nM; and `O=S(=O)(CCO)Nc1ccc(-n2cc(-c3cc(F)cc(N4CCC(F)(F)CC4)n3)nn2)c(N2CCC3(CC2)CC3)c1` [Compound 78, N-(4-(4-(6-(4,4-difluoropiperidin-1-yl)-4-fluoropyridin-2-yl)-1H-1,2,3-triazol-1-yl)-3-(6-azaspiro[2.5]octan-6-yl)phenyl)-2-hydroxyethane-1-sulfonamide], with 17 nM; and `Cc1cc(-c2cn(-c3ccc(NS(=O)(=O)CCO)cc3N3CCC(F)(F)CC3)nn2)nc(N2CCC(F)(F)CC2)c1` [Compound 80, N-(3-(4,4-difluoropiperidin-1-yl)-4-(4-(6-(4,4-difluoropiperidin-1-yl)-4-methylpyridin-2-yl)-1H-1,2,3-triazol-1-yl)phenyl)-2-hydroxyethane-1-sulfonamide], with 13 nM.
To `O=S(=O)(CCO)Nc1ccc(-n2cc(-c3csc(N4CCCC4)n3)nn2)c(N2CCC3(CC2)CC3)c1` [Compound 81, 2-hydroxy-N-(4-(4-(2-(pyrrolidin-1-yl)thiazol-4-yl)-1H-1,2,3-triazol-1-yl)-3-(6-azaspiro[2.5]octan-6-yl)phenyl)ethane-1-sulfonamide] belongs 140 nM; to `O=S(=O)(CCO)Nc1ccc(-n2cc(-c3ccn(C4CCC4)n3)nn2)c(N2CCC3(CC2)CC3)c1` [Compound 82, N-(4-(4-(1-cyclobutyl-1H-pyrazol-3-yl)-1H-1,2,3-triazol-1-yl)-3-(6-azaspiro[2.5]octan-6-yl)phenyl)-2-hydroxyethane-1-sulfonamide], 60 nM.
`O=S(=O)(CCO)Nc1ccc(-n2cc(-c3ccn(C4CCCC4)n3)nn2)c(N2CCC3(CC2)CC3)c1` [Compound 83, N-(4-(4-(1-cyclopentyl-1H-pyrazol-3-yl)-1H-1,2,3-triazol-1-yl)-3-(6-azaspiro[2.5]octan-6-yl)phenyl)-2-hydroxyethane-1-sulfonamide] returned an IC50 of 10 nM.
